Columns and labels:
Assay type in all cases: physicochemical
[1] = In vitro release of dapivirine from PU rods into liposome dispersions; settings: 5 mg/g PU rods
Protocol: It is believed that vaginally delivered lipophilic NNRTI's partition into the lipid bilayer of vaginal epithelial cells.^14,21 Therefore, additional release studies were performed using 100 nm liposome dispersions in pH 4.2 and pH 7.6 buffers as biorelevant sink conditions for 1 week. These pH conditions cover the pH range observed vaginally. Liposome dispersions were synthesized by dissolving egg PC in CHCl3 followed by solvent removal under vacuum. The dried egg PC cake was dispersed in either pH 4.2 (25 mM acetate buffer containing 0.02% sodium azide and osmolarity adjusted to 310 mOsm/kg with NaCl) or pH 7.6 (25 mM phosphate buffer containing 0.02% sodium azide and osmolarity adjusted to 310 mOsm/kg with NaCl) followed by extrusion through a 100 nm membrane (LiposoFast™, Avestin, Ottawa, Canada). The concentration of liposome was 10 mg/mL. Prior to conducting the release study, liposome dispersions were characterized for particle size and zeta potential in a Zetasizer (nano ZS90, Malvern Instruments, Malvern Worcestershire, UK). A third sink condition for comparison was 25:75 v/v i-prOH:water. Approximately 0.5 mm length segments of dapivirine loaded (5 mg/g) PU rods were incubated with 0.5 mL of sink solution in 37° C. water bath shaking at 64±2 rpm. Controls used were dapivirine loaded PU rods suspended with pH 4.2 and pH 7.6 buffers without liposomes and blank PU (no dapivirine) segments in liposome dispersions in pH 4.2 and pH 7.6 buffers. Sinks were replaced and quantified for dapivirine content at frequent time points. HPLC quantification of release in sink samples of liposome dispersions was performed after 1:1 dilution with i-prOH to disrupt the dispersion.

[2] = In vitro release of dapivirine from PU-SC rods in 25:75 i-prOH:water
Protocol: The release profile of dapivirine was measured from PU-SC rods for a month after which the release kinetics from rings was evaluated for two weeks to determine the correlation of drug release rate from rods to that from rings. This may enable use of rods in place of rings for release kinetics evaluation thereby minimizing the scale of materials such as ring materials, quantity of drugs and volume of sink solutions required for release studies in case of monolithic IVRs. About 2 cm length segments were cut from the solid cross-sectional dapivirine loaded PU SC rods. The dimensions (length and diameter) and weight of each segment were recorded. […] HPLC analyses were performed every 2 to 5 days and the cumulative release was calculated by integrating the area under the curve using Kaleidagraph software (Synergy Software, Reading, Pa.). […] At the end of 30 days, the segments were wiped dry and the masses and dimensions of the segments were recorded. Similarly, dapivirine release kinetics were measured from rings (20 mg/g SC, 2.5 mg/g SC, 20 mg/g MM and 2.5 mg/g MM) incubated with 50 mL of 25:75 v/v i-prOH:water mixture as sink condition in 125 mL Erlenmeyer flasks with rubber septa […].
At the end of each release study, the swelling ratio was calculated by using the following equation […]

[3] = Stability of dapivirine under extrusion conditions (heating with LC/MS and NMR, DSC, extraction)
Protocol: A series of experiments were conducted to confirm that dapivirine was stable in PU matrix in the extrusion process. First, the thermal stability of dapivirine at the extrusion temperature was examined and analyzed for its non-degradability as follows: dapivirine was heated at 185° C. isothermally for 2 h under air atmosphere and ^1H and ^13C NMR spectra were recorded (Mercury 400 MHz spectrometer, Varian) for the heated and unheated dapivirine. Furthermore, LC/MS analysis was performed on the heated sample and compared to non-heated controls. The MS instrumentation consisted of Micromass Quattro II Triple Quadruple Mass Spectrometer, Waters, Milford, Mass.
Second, a differential scanning calorimetric (DSC) scan was obtained on dapivirine from 25° C. to 230° C. at a heating rate of 10° C./min under air atmosphere with a flow rate of 40 mL/min (Model DSC821e, Mettler Toledo, Columbus, Ohio). To further confirm the stability of dapivirine in the presence of PU under extrusion conditions, DSC analyses were carried out for PU, dapivirine, and PU films loaded with dapivirine at a concentration of 200 mg/g. The high concentration of dapivirine was selected to enable detection of potential exothermic degradation peaks. The DSC spectrum was collected from 25° C. to 230° C. at the heating rate of 10° C./min as well as at an isothermal condition (175° C. for 10 minutes).
Finally, dapivirine was extracted and quantified from extruded rods and PU pellets (both SC and MM) prior to extrusion. The test samples (100 mg of ring segments or pellets) were dissolved in 2 mL of chloroform in a 50 mL centrifuge tube in triplicate followed by precipitation of the PU by addition of 25 mL of methanol using a volumetric flask. The polymer was separated by centrifugation (1600 RCF, 5 min) and the supernatant was quantified for dapivirine content by HPLC. The caps of the centrifuge tubes were closed tightly and wrapped with Teflon tape during the process to minimize evaporation. The efficiency of the extraction of dapivirine from the PU matrix using this method was determined by quantifying the extracted dapivirine content from controls of blank PU pellets (100 mg) to which known amount of dapivirine was added. The three controls used in triplicate were 1) 100 mg of PU pellets with 2 mg of dapivirine 2) 100 mg of PU pellets with 1 mg of dapivirine and 3) 100 mg of PU pellets with 0.25 mg of dapivirine. The mixtures of PU pellets and dapivirine were then subjected to the same precipitation process and dapivirine quantification as above. A linear calibration curve generated from standards of dapivirine in isopropanol (i-prOH) was utilized for quantification of dapivirine content from extracted samples.

Cc1cc(C)c(Nc2ccnc(Nc3ccc(C#N)cc3)n2)c(C)c1 [dapivirine, 4-[[4-[(2,4,6-trimethylphenyl)amino]pyrimidin-2-yl]amino]benzonitrile]
cumulative release over time ([1]; liposome dispersions, one week): linear relationship with time
dapivirine release in buffer controls ([1]; pH 4.2 and pH 7.6 buffers without liposomes): below the detection limit
release kinetics relative to 25:75 i-prOH:water sink (slopes of linear fits) ([1]; pH 4.2 liposome dispersion): 22 times
release kinetics relative to 25:75 i-prOH:water sink (slopes of linear fits) ([1]; pH 7.6 liposome dispersion): 1.5 times
release kinetics (order) ([2]; all loadings (2.5-20 mg/g), 25:75 i-prOH:water, 37° C., one month): zero order release kinetics
loaded dapivirine released ([2]; at the end of 30 days): about 20%
degradation in DSC thermogram of dapivirine ([3]; 25° C. to 230° C., 10° C./min, air): no detectable degradation
degradation of dapivirine (LC/MS and NMR, heated vs non-heated) ([3]; 185° C. isothermally for 2 h under air): no detectable degradation
degradation of dapivirine in PU under extrusion conditions (DSC) ([3]; PU films loaded with 200 mg/g, ramp 25 to 230° C. and isothermal 175° C., extrusion 165 to 175° C.): no detectable degradation
dapivirine content recovered from extruded rods vs SC or MM pellets prior to extrusion ([3]; extraction, HPLC, p value>0.05, unpaired t-test): not significantly different
solubility of dapivirine in PU matrix ([3]; from absence of the 220° C. melting endotherm in DSC of PU films loaded at 200 mg/g): > 200 mg/g
